Reference: ChEMBL document CHEMBL4052831, “The Discovery of N-(1-Methyl-5-(trifluoromethyl)-1H-pyrazol-3-yl)-5-((6- ((methylamino)methyl)pyrimidin-4-yl)oxy)-1H-indole-1-carboxamide (Acrizanib), a VEGFR-2 Inhibitor Specifically Designed for Topical Ocular Delivery, as a Therapy for Neovascular Age-Related Macular Degeneration” (J Med Chem, 2018)
In brackets after ≈: the same amount, converted by molar mass. Each block holds one compound with its values, some of them ahead of it. Activity calls are given as the source filed them. The calls are words filed in the database; no cut-off is given here.

Experiments:
Mus musculus = experiment: Antiangiogenic activity in C57BL/6 mouse laser-induced choroidal neovascularization model assessed as inhibition of neovascularization administered 1% suspension using 3.5 uL topical drop to both eyes every 3 hrs for 9 hrs by microscopic analysis
[1] = biological target: Vascular endothelial growth factor receptor 2 (Homo sapiens, UniProt P35968)
Description: Inhibition of KDR (unknown origin) expressed in mouse Ba/F3 cells

Rattus norvegicus [2] = experiment: Antiangiogenic activity in Brown Norway rat laser-induced choroidal neovascularization model assessed as inhibition of neovascularization administered 1% suspension using 4 uL topical drop to both eyes every 3 hrs for 9 hrs by microscopic analysis
Rattus norvegicus [3] = experiment: Antiangiogenic activity in Brown Norway rat laser-induced choroidal neovascularization model assessed as inhibition of neovascularization administered 0.09% suspension using 4 uL topical drop to both eyes every 3 hrs for 9 hrs by microscopic analysis; assay type: functional
[4] = Solubility of compound at pH 7.4; assay type: physicochemical; details: buffer
Rattus norvegicus [5] = experiment: Antiangiogenic activity in Brown Norway rat laser-induced choroidal neovascularization model assessed as inhibition of neovascularization administered 0.1% solution to both eyes every 3 hrs for 9 hrs by microscopic analysis; assay type: functional
[6] = biological target: Platelet-derived growth factor receptor alpha (Homo sapiens, UniProt P16234); experiment: Inhibition of human PDGFRalpha
[7] = biological target: Proto-oncogene tyrosine-protein kinase receptor Ret (Homo sapiens, UniProt P07949); experiment: Inhibition of human RET
[8] = biological target: Mast/stem cell growth factor receptor Kit (Homo sapiens, UniProt P10721); experiment: Inhibition of human KIT
[9] = biological target: Tyrosine-protein kinase Lyn (Homo sapiens, UniProt P07948); experiment: Inhibition of human LYN
[10] = biological target: Tyrosine-protein kinase ABL1 (Homo sapiens, UniProt P00519); experiment: Inhibition of human ABL
[11] = AUC (0 to last) in posterior eye cup of Brown Norway rat administered 0.3% suspension using 4 uL topical drop to both eyes as single dose by LC-MS/MS analysis; assay type: ADME; details: topical or ocular, 4 uL of 0.3% suspension per eye
[12] = Cmax in posterior eye cup of Brown Norway rat administered 0.3% suspension using 4 uL topical drop to both eyes as single dose by LC-MS/MS analysis; assay type: ADME; details: topical or ocular, 4 uL of 0.3% suspension per eye
[13] = AUC (0 to last) in retina of Brown Norway rat administered 0.3% suspension using 4 uL topical drop to both eyes as single dose by LC-MS/MS analysis; assay type: ADME, tissue-based; set-up: dose 4 uL, time 0 - last, route ophthalmic; details: topical or ocular, 4 uL of 0.3% suspension per eye
[14] = Cmax in retina of Brown Norway rat administered 0.3% suspension using 4 uL topical drop to both eyes as single dose by LC-MS/MS analysis; assay type: ADME, tissue-based; set-up: dose 4 uL, route ophthalmic; details: topical or ocular, 4 uL of 0.3% suspension per eye
[15] = AUC (0 to last) in plasma of Brown Norway rat administered 0.3% suspension using 4 uL topical drop to both eyes as single dose by LC-MS/MS analysis; assay type: ADME; set-up: dose 4 uL, time 0 - last, route ophthalmic; details: topical or ocular, 4 uL of 0.3% suspension per eye
[16] = Cmax in plasma of Brown Norway rat administered 0.3% suspension using 4 uL topical drop to both eyes as single dose by LC-MS/MS analysis; assay type: ADME; set-up: dose 4 uL, route ophthalmic; details: topical or ocular, 4 uL of 0.3% suspension per eye
[17] = AUC (0 to last) in posterior eye cup of Brown Norway rat administered 0.3% suspension using 4 uL topical drop to both eyes every 3 hrs for 9 hrs over 10 days and single drop to each eye on day 11 by LC-MS/MS analysis; assay type: ADME; details: topical or ocular, 4 uL of 0.3% suspension per eye
[18] = Cmax in posterior eye cup of Brown Norway rat administered 0.3% suspension using 4 uL topical drop to both eyes every 3 hrs for 9 hrs over 10 days and single drop to each eye on day 11 by LC-MS/MS analysis; assay type: ADME; details: topical or ocular, 4 uL of 0.3% suspension per eye
[19] = AUC (0 to last) in retina of Brown Norway rat administered 0.3% suspension using 4 uL topical drop to both eyes every 3 hrs for 9 hrs over 10 days and single drop to each eye on day 11 by LC-MS/MS analysis; assay type: ADME; details: topical or ocular, 4 uL of 0.3% suspension per eye
[20] = Cmax in retina of Brown Norway rat administered 0.3% suspension using 4 uL topical drop to both eyes every 3 hrs for 9 hrs over 10 days and single drop to each eye on day 11 by LC-MS/MS analysis; assay type: ADME; details: topical or ocular, 4 uL of 0.3% suspension per eye
[21] = AUC (0 to last) in plasma of Brown Norway rat administered 0.3% suspension using 4 uL topical drop to both eyes every 3 hrs for 9 hrs over 10 days and single drop to each eye on day 11 by LC-MS/MS analysis; assay type: ADME; details: topical or ocular, 4 uL of 0.3% suspension per eye
[22] = Cmax in plasma of Brown Norway rat administered 0.3% suspension using 4 uL topical drop to both eyes every 3 hrs for 9 hrs over 10 days and single drop to each eye on day 11 by LC-MS/MS analysis; assay type: ADME; details: topical or ocular, 4 uL of 0.3% suspension per eye
[23] = AUC (0 to last) in cynomolgus monkey plasma administered 0.5% suspension using 30 uL topical drop to both eyes as single dose by LC-MS/MS analysis; assay type: ADME, Macaca fascicularis; set-up: dose 30 uL, route ophthalmic, time 0 - last; details: topical or ocular, 30 uL of 0.5% suspension per eye
[24] = Cmax in cynomolgus monkey plasma administered 0.5% suspension using 30 uL topical drop to both eyes as single dose by LC-MS/MS analysis; assay type: ADME, Macaca fascicularis; set-up: dose 30 uL, route ophthalmic; details: topical or ocular, 30 uL of 0.5% suspension per eye
[25] = Plasma concentration in cynomolgus monkey administered 0.5% suspension using 30 uL topical drop to both eyes as single dose measured over 24 hrs by LC-MS/MS analysis; assay type: ADME, cell-free, Macaca fascicularis; details: topical or ocular, 30 uL of 0.5% suspension per eye
[26] = Tmax in cynomolgus monkey plasma administered 0.5% suspension using 30 uL topical drop to both eyes as single dose by LC-MS/MS analysis; assay type: ADME, Macaca fascicularis; details: topical or ocular, 30 uL of 0.5% suspension per eye
[27] = AUC (0 to last) in cynomolgus monkey plasma administered 0.5% suspension using 30 uL topical drop to both eyes every 3 hrs for 9 hrs over 5 days and single drop to each eye on day 6 by LC-MS/MS analysis; assay type: ADME, Macaca fascicularis; details: topical or ocular, 30 uL of 0.5% suspension per eye
[28] = Cmax in cynomolgus monkey plasma administered 0.5% suspension using 30 uL topical drop to both eyes every 3 hrs for 9 hrs over 5 days and single drop to each eye on day 6 by LC-MS/MS analysis; assay type: ADME, Macaca fascicularis; details: topical or ocular, 30 uL of 0.5% suspension per eye
Plasma = experiment: Plasma concentration in cynomolgus monkey administered 0.5% suspension using 30 uL topical drop to both eyes every 3 hrs for 9 hrs over 5 days and single drop to each eye on day 6 by LC-MS/MS analysis; assay type: ADME, cell-free, Macaca fascicularis; details: topical_or_ocular
[29] = Tmax in cynomolgus monkey plasma administered 0.5% suspension using 30 uL topical drop to both eyes every 3 hrs for 9 hrs over 5 days and single drop to each eye on day 6 by LC-MS/MS analysis; assay type: ADME, Macaca fascicularis; details: topical or ocular, 30 uL of 0.5% suspension per eye
Cynomolgus monkey [30] = experiment: Toxicity in cynomolgus monkey anterior region of eye administered 0.5% suspension using 30 uL topical drop to both eyes every 3 hrs for 9 hrs over 5 days by slit lamp biomicroscopic method; set-up: species or system Macaca fascicularis; details: in vivo, topical_or_ocular
Cynomolgus monkey [31] = experiment: Toxicity in cynomolgus monkey adnexa region of eye administered 0.5% suspension using 30 uL topical drop to both eyes every 3 hrs for 9 hrs over 5 days by slit lamp biomicroscopic method; set-up: species or system Macaca fascicularis; details: in vivo, topical_or_ocular
Cynomolgus monkey [32] = experiment: Toxicity in cynomolgus monkey ocular fundus administered 0.5% suspension using 30 uL topical drop to both eyes every 3 hrs for 9 hrs over 5 days by indirect ophthalmoscopic method; set-up: species or system Macaca fascicularis; details: in vivo, topical_or_ocular

Sequence of Proto-oncogene tyrosine-protein kinase receptor Ret (P07949 whole entry): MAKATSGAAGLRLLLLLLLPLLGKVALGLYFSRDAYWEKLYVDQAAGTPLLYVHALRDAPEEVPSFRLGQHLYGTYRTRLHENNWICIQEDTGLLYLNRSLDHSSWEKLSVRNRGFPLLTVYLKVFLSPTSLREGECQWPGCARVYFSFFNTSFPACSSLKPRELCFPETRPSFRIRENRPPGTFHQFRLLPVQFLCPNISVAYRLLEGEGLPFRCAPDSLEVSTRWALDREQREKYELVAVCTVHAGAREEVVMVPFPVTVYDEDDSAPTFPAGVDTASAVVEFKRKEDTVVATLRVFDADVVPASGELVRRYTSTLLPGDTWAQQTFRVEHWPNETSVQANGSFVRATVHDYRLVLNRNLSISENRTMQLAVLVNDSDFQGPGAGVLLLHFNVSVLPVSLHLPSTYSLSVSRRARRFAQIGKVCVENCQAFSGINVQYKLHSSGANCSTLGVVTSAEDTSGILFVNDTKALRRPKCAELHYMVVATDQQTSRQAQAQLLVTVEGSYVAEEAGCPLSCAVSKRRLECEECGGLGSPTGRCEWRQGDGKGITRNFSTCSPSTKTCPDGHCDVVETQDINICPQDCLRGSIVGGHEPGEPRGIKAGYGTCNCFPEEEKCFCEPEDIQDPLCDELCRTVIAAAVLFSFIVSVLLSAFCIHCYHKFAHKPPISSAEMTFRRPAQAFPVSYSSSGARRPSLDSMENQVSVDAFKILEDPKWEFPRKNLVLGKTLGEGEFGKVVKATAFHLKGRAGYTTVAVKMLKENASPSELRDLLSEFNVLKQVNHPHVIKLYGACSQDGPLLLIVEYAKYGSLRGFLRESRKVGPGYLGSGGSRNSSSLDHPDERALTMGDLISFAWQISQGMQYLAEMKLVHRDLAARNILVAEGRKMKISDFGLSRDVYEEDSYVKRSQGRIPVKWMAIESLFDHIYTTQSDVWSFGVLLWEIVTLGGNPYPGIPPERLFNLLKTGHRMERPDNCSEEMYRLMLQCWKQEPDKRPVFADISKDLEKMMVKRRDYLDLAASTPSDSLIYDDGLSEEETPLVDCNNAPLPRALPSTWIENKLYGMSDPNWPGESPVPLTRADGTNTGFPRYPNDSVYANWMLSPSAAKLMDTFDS
Sequence of Mast/stem cell growth factor receptor Kit (P10721 whole entry): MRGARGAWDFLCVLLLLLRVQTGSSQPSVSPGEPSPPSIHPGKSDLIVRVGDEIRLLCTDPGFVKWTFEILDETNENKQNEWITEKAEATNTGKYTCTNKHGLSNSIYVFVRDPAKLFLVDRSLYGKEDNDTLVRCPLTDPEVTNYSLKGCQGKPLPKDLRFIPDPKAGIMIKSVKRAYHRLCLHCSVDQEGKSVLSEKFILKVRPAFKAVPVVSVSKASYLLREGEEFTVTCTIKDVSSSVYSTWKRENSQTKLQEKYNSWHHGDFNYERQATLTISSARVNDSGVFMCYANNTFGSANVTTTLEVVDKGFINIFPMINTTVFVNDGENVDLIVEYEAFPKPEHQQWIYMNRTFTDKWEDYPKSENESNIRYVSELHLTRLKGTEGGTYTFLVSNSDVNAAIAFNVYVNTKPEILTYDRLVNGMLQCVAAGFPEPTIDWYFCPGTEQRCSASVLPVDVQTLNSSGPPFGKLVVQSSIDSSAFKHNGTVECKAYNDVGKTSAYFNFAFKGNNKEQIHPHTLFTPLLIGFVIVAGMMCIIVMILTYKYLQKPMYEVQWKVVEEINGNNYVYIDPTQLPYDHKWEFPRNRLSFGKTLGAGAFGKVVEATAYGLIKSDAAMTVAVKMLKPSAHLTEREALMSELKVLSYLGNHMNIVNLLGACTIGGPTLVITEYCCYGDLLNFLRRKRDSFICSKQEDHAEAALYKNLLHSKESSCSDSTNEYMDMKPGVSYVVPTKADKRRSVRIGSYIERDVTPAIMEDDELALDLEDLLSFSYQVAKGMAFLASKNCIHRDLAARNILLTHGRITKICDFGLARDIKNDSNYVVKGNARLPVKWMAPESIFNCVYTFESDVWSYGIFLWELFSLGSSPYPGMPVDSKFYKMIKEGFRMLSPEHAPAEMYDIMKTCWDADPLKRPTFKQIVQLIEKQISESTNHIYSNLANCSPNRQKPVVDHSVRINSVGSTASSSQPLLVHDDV
Sequence of Vascular endothelial growth factor receptor 2 (P35968 whole entry): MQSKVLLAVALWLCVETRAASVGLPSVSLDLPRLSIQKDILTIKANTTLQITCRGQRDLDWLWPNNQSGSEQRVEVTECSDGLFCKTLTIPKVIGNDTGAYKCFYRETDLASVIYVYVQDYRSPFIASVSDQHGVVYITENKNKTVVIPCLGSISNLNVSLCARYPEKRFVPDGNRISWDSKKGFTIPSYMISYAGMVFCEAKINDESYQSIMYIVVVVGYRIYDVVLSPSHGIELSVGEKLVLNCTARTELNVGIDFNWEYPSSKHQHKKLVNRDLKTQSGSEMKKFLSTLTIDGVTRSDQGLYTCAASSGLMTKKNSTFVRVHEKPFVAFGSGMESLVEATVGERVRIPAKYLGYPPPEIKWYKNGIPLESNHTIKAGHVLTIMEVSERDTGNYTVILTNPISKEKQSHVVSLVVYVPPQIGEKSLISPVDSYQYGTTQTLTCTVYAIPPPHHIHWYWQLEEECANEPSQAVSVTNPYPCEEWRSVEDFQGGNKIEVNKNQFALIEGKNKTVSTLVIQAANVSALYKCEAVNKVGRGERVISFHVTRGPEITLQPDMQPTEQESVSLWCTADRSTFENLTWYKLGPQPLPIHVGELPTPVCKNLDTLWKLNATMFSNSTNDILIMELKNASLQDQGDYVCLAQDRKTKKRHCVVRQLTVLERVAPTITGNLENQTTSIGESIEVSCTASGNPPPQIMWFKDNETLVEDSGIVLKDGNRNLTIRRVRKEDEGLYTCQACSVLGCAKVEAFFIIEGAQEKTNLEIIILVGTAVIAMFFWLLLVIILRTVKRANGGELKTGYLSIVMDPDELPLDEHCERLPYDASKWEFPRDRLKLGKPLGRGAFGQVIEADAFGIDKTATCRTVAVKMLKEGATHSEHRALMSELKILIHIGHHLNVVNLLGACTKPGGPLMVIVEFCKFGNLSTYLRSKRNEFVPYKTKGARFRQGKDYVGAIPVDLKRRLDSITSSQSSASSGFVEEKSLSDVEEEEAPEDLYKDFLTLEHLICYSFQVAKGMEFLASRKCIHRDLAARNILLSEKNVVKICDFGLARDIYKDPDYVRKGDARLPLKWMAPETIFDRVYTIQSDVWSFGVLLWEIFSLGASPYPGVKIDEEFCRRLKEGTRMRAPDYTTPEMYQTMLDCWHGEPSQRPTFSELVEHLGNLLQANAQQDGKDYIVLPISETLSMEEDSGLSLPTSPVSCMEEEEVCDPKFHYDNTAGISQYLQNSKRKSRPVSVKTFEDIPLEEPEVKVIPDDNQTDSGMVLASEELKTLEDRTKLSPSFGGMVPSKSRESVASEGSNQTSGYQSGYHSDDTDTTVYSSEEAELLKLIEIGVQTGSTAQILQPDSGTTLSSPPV
Sequence of Platelet-derived growth factor receptor alpha (P16234 whole entry): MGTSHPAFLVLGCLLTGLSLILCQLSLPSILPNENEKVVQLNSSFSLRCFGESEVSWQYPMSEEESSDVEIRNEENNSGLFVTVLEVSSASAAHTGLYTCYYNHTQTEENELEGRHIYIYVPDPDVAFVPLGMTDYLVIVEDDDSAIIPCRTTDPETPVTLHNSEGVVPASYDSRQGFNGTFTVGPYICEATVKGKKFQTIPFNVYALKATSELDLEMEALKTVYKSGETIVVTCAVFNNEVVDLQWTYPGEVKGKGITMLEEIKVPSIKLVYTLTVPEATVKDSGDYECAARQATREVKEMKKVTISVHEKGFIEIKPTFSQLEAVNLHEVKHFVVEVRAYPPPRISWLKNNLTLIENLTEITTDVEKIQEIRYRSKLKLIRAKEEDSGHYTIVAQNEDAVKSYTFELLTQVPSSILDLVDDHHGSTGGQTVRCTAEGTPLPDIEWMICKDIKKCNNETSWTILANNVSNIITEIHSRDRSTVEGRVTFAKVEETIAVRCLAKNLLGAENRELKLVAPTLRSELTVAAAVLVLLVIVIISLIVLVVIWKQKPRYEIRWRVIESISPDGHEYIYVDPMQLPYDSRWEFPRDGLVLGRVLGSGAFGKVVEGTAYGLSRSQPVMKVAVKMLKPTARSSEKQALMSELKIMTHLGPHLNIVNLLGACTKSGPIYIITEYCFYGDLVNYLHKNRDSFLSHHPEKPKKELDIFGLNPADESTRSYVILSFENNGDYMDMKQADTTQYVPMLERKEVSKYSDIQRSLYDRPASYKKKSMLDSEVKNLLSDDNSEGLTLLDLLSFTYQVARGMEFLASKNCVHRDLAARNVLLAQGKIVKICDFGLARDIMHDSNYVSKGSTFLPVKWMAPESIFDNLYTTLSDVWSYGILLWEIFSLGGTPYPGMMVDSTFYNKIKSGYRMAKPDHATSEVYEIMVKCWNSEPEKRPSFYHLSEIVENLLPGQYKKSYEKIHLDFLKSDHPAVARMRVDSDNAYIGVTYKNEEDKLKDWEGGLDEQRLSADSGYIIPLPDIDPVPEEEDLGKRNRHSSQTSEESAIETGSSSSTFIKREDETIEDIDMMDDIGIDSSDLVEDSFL
Sequence of Tyrosine-protein kinase Lyn (P07948 whole entry): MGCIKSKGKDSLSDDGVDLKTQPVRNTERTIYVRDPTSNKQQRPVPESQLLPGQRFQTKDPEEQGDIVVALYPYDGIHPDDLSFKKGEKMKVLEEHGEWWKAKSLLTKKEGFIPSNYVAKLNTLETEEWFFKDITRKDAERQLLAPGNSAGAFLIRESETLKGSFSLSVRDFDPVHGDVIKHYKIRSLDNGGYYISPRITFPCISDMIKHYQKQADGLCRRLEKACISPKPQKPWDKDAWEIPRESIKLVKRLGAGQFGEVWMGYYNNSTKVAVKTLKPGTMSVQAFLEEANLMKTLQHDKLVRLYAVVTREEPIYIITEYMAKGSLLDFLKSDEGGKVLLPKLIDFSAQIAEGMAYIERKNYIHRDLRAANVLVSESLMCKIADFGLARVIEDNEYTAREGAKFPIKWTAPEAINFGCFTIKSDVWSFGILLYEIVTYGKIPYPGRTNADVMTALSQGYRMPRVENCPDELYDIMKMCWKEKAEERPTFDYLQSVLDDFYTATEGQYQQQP

Compound: O=C(Nc1cc(C2CC2)on1)n1ccc2cc(Oc3cc(CO)ncn3)ccc21
inhibition (Mus musculus): inactive

Compound: O=C(Nc1cc(C2(CO)CC2)on1)n1ccc2cc(Oc3ncnc4c3CNC4)ccc21
inhibition (Mus musculus): inactive

IC50 [1]: 1.7 nM
Compound: Nc1nccc(Oc2ccc3c(C(=O)Nc4cccc(C(F)(F)F)c4)cccc3c2)n1
inhibition (Rattus norvegicus [2]): inactive

solubility [4]: 0.6 µM (≈ 0.284 µg/mL)
IC50 [6]: < 500 nM
IC50 [7]: < 500 nM
IC50 [8]: < 500 nM
IC50 [9]: < 500 nM
IC50 [10]: < 500 nM
AUC(0-t) [11]: 8.97 µM·h
Cmax [12]: 2860 nM
AUC(0-t) [13]: 0.22 µM·h
Cmax [14]: 150 nM
AUC(0-t) [15]: 0.449 µM·h
Cmax [16]: 51.6 nM
AUC(0-t) [17]: 29.5 µM·h
Cmax [18]: 4730 nM
AUC(0-t) [19]: 0.764 µM·h
Cmax [20]: 138 nM
AUC(0-t) [21]: 0.923 µM·h
Cmax [22]: 78.6 nM
AUC(0-t) [23]: 1.07 µM·h
Cmax [24]: 65.8 nM
concentration at 24 h [25]: 64 nM
Tmax [26]: 11 h
AUC(0-t) [27]: 2.51 µM·h
Cmax [28]: 228 nM
concentration (Plasma): 84.4 nM
Tmax [29]: 3 h
Compound: CC(=O)N1Cc2ncnc(Oc3ccc4c(ccn4C(=O)Nc4cc(C5CC5)on4)c3)c2C[C@@H]1C
inhibition (INH) (Rattus norvegicus [3]): 50%
inhibition (INH) (Rattus norvegicus [5]): 55%
Activity (Cynomolgus monkey [30]): Non-Toxic
Activity (Cynomolgus monkey [31]): Non-Toxic
Activity (Cynomolgus monkey [32]): Non-Toxic
